Data on nine compounds can be found in patent publication US5214053A, “Thiourea derivatives and antimicrobial agent and antiulcer agent containing the same” (Terumo Kabushiki Kaisha, priority 1991, dated 1993).

Assay [1] deals with peptic ulcer induced by water immersion restrain stress. Nature of the assay: Inhibitory action against peptic ulcer induced by water immersion restrain stress. The format is in vivo, SD male rats. The note with it: Rattus norvegicus, read-out: Inhibitory action against stress peptic ulcer, percent inhibition of peptic ulcer formation. How it is done:
Inhibitory Action Against Peptic Ulcer Induced By Water Immersion Restrain Stress
SD male rats (weighing 200-300 g) were fasted for 24 hours before oral administration of a thiourea derivative of the invention at a dose of 32 mg/kg bodyweight. One hour later, the animal was put in a stress cage and loaded with water immersion restraint stress in a water bath at 23° C.
Seven hours after loading with the stress, the rat was sacrificed with ether, and the stomach was excised and treated with formalin. Area (mm^2) of the lesions developed in the glandular stomach area was then measured. Results were expressed in sum of the lesions per animal which was referred to as peptic ulcer index.
Percent inhibition of the peptic ulcer formation (%) as shown in the table was calculated according to the following equation: [formula]

Assay [2] deals with ethanol peptic ulcer. The assay is described as follows: Inhibitory action against ethanol peptic ulcer. The format is in vivo, SD male rats. Particulars: Rattus norvegicus, read-out: Inhibitory action against ethanol peptic ulcer, percent inhibition of peptic ulcer formation. How it is done: Inhibitory Action Against Ethanol Peptic Ulcer
SD male rats (weighing 200-300 g) were fasted for 24 hours before oral administration of a thiourea derivative of the invention at a dose of 32 mg/kg bodyweight. One hour later, ethanol was orally given in a volume of 0.5 ml/100 g bodyweight. One hour after administering ethanol, the rat was sacrificed with ether, and the stomach was excised and treated with formalin. Area (mm^2) of the lesions developed in the glandular stomach area was then measured. Results were expressed in sum of the lesions per animal which was referred to as peptic ulcer index.
Percent inhibition of the peptic ulcer formation (%) as shown in the table was calculated according to the same equation as mentioned above.

In assay [3] the test system is Helicobacter pylori. Nature of the assay: Antimicrobial activity against Helicobacter pylori (MIC). In kind it is cell-based, Helicobacter pylori strain NCTC 11916. How it is done: Antimicrobial Activity Against Helicobacter Pylori
Antimicorbial activity of the thiourea derivatives according to the invention against Helicobacter pylori (or Campylobacter pylori) was evaluated by employing strain NCTC 11916 as a Helicobacter test organism and determining MIC (minimum inhibitory concentration) of the thiourea derivative against Helicobacter pylori.
The Helicobacter pylori was pre-incubated in a plate medium for 3-5 days. […] These antibiotics were contained for inhibition of the growth of microorganisms with than Helicobacter pylori.
The Helicobacter pylori pre-incubated under slightly aerobic conditions (an O2 concentration of about 5%) at 37° C. for 3-5 days was suspended in a physiological saline solution in a concentration of approximately 10^8 organisms/ml. Approximately 10-20 μl of the suspension was inoculated on a medium for MIC measurement in cross streaks. […] The DMSO solution was formed by the twofold dilution method using sterilized distilled water. As in the pre-incubation, the Helicobacter pylori was cultured under slightly aerobic conditions at 37° C. for 3-5 days. After completion of the culture, growth of the microorganisms on the streaks was visually determined. […] The MIC of cemetidine, an antagonist to histamine was also measured for comparison.

The mark [4] stands for this setting: SD male rats, oral, 32 mg/kg, 1 hour before stress, lesions measured 7 hours after loading with the stress.
The mark [5] stands for this setting: SD male rats, oral, 32 mg/kg, 1 hour before ethanol (0.5 ml/100 g), lesions measured 1 hour after ethanol.
The mark [6] stands for this setting: NCTC11916, strain NCTC 11916, Mueller-Hinton agar with horse hemolysis solution, 37° C., 3-5 days, slightly aerobic (O2 about 5%), read-out: Antimicrobial activity against Helicobacter pylori, MIC (minimum inhibitory concentration).

Values after ≈ are worked out from the molar mass of the structure shown. Read-outs that look alike come from different tables or passages of the source.

In the case of `CNC(=NC#N)NCCSCc1nc[nH]c1C` [Cemetidine, reference compound], the inhibition in vivo at 32 mg/kg amounted to 64% in assay [1] (po, 7 h) and 16% in assay [2] (po, 1 h). Moreover, in assay [3] (NCTC11916, read-out: Antimicrobial activity against Helicobacter pylori, MIC (minimum inhibitory concentration)), the MIC is at least 400 µg/mL.

For `O=C(CCCNC(=S)Nc1ccc2c(c1)OCO2)NCCCOc1cccc(CN2CCCCC2)c1` [Example 1, 1-[3-[N-[3-[3(piperidinomethyl)phenoxy]propyl]carbamoyl]propyl]-3-[(3,4methylenedioxy)phenyl] thiourea], the values for the inhibition in vivo at 32 mg/kg in assay [1] (setting [4]) and in assay [2] (setting [5]) were 80% and 67%, respectively. In assay [3] (setting [6]), the MIC was determined as 6.25 µg/mL (≈ 12.2 µM).

For the compound `O=C(CCCNC(=S)Nc1ccc2c(c1)OCCO2)NCCCOc1cccc(CN2CCCCC2)c1` [Example 2, 1-[3-[N-[3-[3-(piperidinomethy)phenoxy]propyl]carbamoyl]propyl]-3-[(3,4-ethylenedioxy)phenyl]thiourea], the inhibition in vivo at 32 mg/kg in assay [1] (setting [4]) amounted to 76%; in assay [2] (setting [5]), 66%. Further, in assay [3] (setting [6]), the MIC was 6.25 µg/mL (≈ 11.9 µM).

Consider `O=C(CCCNC(=S)Nc1ccc2c(c1)OCO2)NCCCOc1cccc(CN2CCCC2)c1` [Example 3, 1-[3-[N-[3-[3-(pyrrolidinomethyl)phenoxy]propyl]carbamoyl]propyl]-3-[(3,4-methylenedioxy)phenyl]-thiourea], for which the inhibition in vivo at 32 mg/kg in assay [1] (setting [4]) came out at 68%; in assay [2] (setting [5]), 61%. Further, in assay [3] (setting [6]), the MIC stood at 6.25 µg/mL (≈ 12.5 µM).

`CC1CCCN(Cc2cccc(OCCCNC(=O)CCCNC(=S)Nc3ccc4c(c3)OCO4)c2)C1` (stereo not drawn) [Example 4, 1-[3-[N-[3-[3((3-methylpiperidino)methyl)phenoxy]propyl]carbamoyl]propyl]-3-[(3,4-methylenedioxy)phenyl]thiourea]: the values for the inhibition in vivo at 32 mg/kg in assay [1] (setting [4]) and in assay [2] (setting [5]) were 77% and 71%, respectively. In addition, the MIC in assay [3] (setting [6]) came to 6.25 µg/mL (≈ 11.9 µM).

On to `CCN(CC)Cc1cccc(OCCCNC(=O)CCCNC(=S)Nc2ccc3c(c2)OCO3)c1` [Example 5, 1-[3-[N-[3-[3-(diethylaminomethyl)phenoxy]propyl]carbamoyl]propyl]-3-[(3,4-methylenedioxy)phenyl]thiourea], for which the inhibition in vivo at 32 mg/kg in assay [1] (setting [4]) stood at 62%; in assay [2] (setting [5]) it was 52%. For the same compound, in assay [3] (setting [6]), the MIC was 12.5 µg/mL (≈ 25 µM).

Take `O=C(CCCCCNC(=S)Nc1ccc2c(c1)OCO2)NCCCOc1cccc(CN2CCCCC2)c1` [Example 6]: the inhibition in vivo at 32 mg/kg in assay [1] (setting [4]) was 65%; in assay [2] (setting [5]), 70%. Also, in assay [3] (setting [6]), the MIC is 6.25 µg/mL (≈ 11.6 µM).

As for `O=C(CCCNC(=S)Nc1ccc2c(c1)OCO2)NCCCOc1cc(CN2CCCCC2)ccn1` [Example 7], the inhibition in vivo at 32 mg/kg in assay [1] (setting [4]) turned out to be 78%; in assay [2] (setting [5]), 63%. Further, the MIC in assay [3] (setting [6]) was found to be 6.25 µg/mL (≈ 12.2 µM).

`O=C(CCCNC(=S)NCc1ccc2c(c1)OCO2)NCCCOc1cccc(CN2CCCCC2)c1` [Example 8]: the inhibition in vivo at 32 mg/kg in assay [1] (setting [4]) was 82%; in assay [2] (setting [5]), 78%. Further, the MIC in assay [3] (setting [6]) was determined as 6.25 µg/mL (≈ 11.9 µM).
